The subject of test [1] is brains, heart, liver, muscle, and DRG of the NHPs. Description: Maturation of TTM-001 and TTM-002 capsids, NGS enrichment in NHP tissues. The settings on record: relative to AAV9 control. It is filed as in vivo. The method, boiled down: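 Variants carry mutations within and flanking the loop IV peptide insert: positions 450–466 were triplet-randomized, while positions 449–466 received low-frequency point mutations. The combined pool went into two NHPs, and each peptide was scored by NGS enrichment ratio against AAV9.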

For a further test, the system named is brain. Description: Matured TTM-001 and TTM-002 variants, NGS enrichment in mouse brain. It is filed as in vivo, mice. The settings on record: relative to AAV9 control.
Where [2] appears, read: NGS fold-enrichment of RNA, NHP brain.
The mark [3] stands for this setting: NGS fold-enrichment, NHP liver DNA.
Setting [4] is: NGS fold-enrichment, NHP liver RNA.
The mark [5] stands for this setting: NGS fold-enrichment, NHP muscle.
[6] abbreviates: NGS fold-enrichment, mouse brain.
Where [7] appears, read: NGS fold-enrichment, DRG of NHPs.
Setting [8] is: NGS fold-enrichment, RNA, brain of NHPs.
The mark [9] stands for this setting: NGS fold-enrichment, heart of NHPs.
[10] abbreviates: NGS fold-enrichment, liver DNA of NHPs.
Setting [11] is: NGS fold-enrichment, liver RNA of NHPs.
Setting [12] is: NGS fold-enrichment, muscle of NHPs.
Where [13] appears, read: NGS fold-enrichment, brain of mice.
Where [14] appears, read: NGS fold-enrichment of matured AAV capsid variants, NHP brain, RNA.

KTINGHGSPHSKAQNPQT: the “Fold Enrichment relative to AAV9, Brain (NHP)” value in test [1] (setting [2]) stood at 83.478 fold. Further, the “Fold Enrichment relative to AAV9, DRG (NHP)” value in test [1] (NGS fold-enrichment, NHP DRG) stood at 0.000 fold. The “Fold Enrichment relative to AAV9, Heart (NHP)” value in test [1] (NGS fold-enrichment, NHP heart) came out at 0.288 fold. Further, the “Fold Enrichment relative to AAV9, Liver DNA (NHP)” value in test [1] (setting [3]) came out at 0.260 fold. The “Fold Enrichment relative to AAV9, Liver RNA (NHP)” value in test [1] (setting [4]) was 0.000 fold. Also, the “Fold Enrichment relative to AAV9, Muscle (NHP)” value in test [1] (setting [5]) was determined as 0.219 fold. In addition, the “Fold Enrichment relative to AAV9, Brain (Mouse)” value in the test on brain (setting [6]) came to 11.001 fold.
For KTINGSGSPHSKTKSQQT, the “Fold Enrichment relative to AAV9, DRG (NHP)” value in test [1] (setting [7]) came to 0.000 fold. Further, in test [1] (setting [8]), the “Fold Enrichment relative to AAV9, Brain (NHP)” value was found to be 70.891 fold. For the same sequence, in test [1] (setting [9]), the “Fold Enrichment relative to AAV9, Heart (NHP)” value came out at 0.568 fold. For the same sequence, the “Fold Enrichment relative to AAV9, Liver DNA (NHP)” value in test [1] (setting [10]) is reported as 0.496 fold. For the same sequence, the “Fold Enrichment relative to AAV9, Liver RNA (NHP)” value in test [1] (setting [11]) came out at 0.418 fold. For the same sequence, the “Fold Enrichment relative to AAV9, Muscle (NHP)” value in test [1] (setting [12]) is listed as 0.045 fold. In the test with brain (setting [13]), the “Fold Enrichment relative to AAV9, Brain (Mouse)” value is reported as 83.923 fold.
On to KAVNVSGSPHSKAQNQQT, for which the “Fold Enrichment relative to AAV9, Brain (NHP)” value in test [1] (setting [14]) is 54.586 fold. Besides, the “Fold Enrichment relative to AAV9, DRG (NHP)” value in test [1] (NHP DRG) came out at 0.000 fold. In addition, in test [1] (NHP heart), the “Fold Enrichment relative to AAV9, Heart (NHP)” value is given as 0.000 fold. In addition, the “Fold Enrichment relative to AAV9, Liver DNA (NHP)” value in test [1] (NHP liver, DNA) is recorded as 0.023 fold. In test [1] (NHP liver, RNA), the “Fold Enrichment relative to AAV9, Liver RNA (NHP)” value was found to be 0.000 fold. The “Fold Enrichment relative to AAV9, Muscle (NHP)” value in test [1] (NHP muscle) was 0.000 fold. Besides, the “Fold Enrichment relative to AAV9, Brain (Mouse)” value in the test on brain (mouse brain) was 57.835 fold.
As to KTERISGSPHSKAQNQQT, the “Fold Enrichment relative to AAV9, Brain (NHP)” value in test [1] (setting [2]) and in test [1] (setting [8]) was 103.692 fold in each case. For the same sequence, the “Fold Enrichment relative to AAV9, DRG (NHP)” value was 0.000 fold in test [1] (setting [7]) and 0.000 fold in test [1] (NGS fold-enrichment, NHP DRG). Further, the “Fold Enrichment relative to AAV9, Heart (NHP)” value was found to be 0.000 fold in test [1] (NGS fold-enrichment, NHP heart) and 0.000 fold in test [1] (setting [9]). Besides, the “Fold Enrichment relative to AAV9, Liver DNA (NHP)” value in test [1] (setting [3]) and in test [1] (setting [10]) was 0.370 fold in each case. In addition, the “Fold Enrichment relative to AAV9, Liver RNA (NHP)” value in test [1] (setting [4]) and in test [1] (setting [11]) was 0.062 fold throughout. For the same sequence, the “Fold Enrichment relative to AAV9, Muscle (NHP)” value in test [1] (setting [5]) and in test [1] (setting [12]) was 0.000 fold throughout. In addition, the “Fold Enrichment relative to AAV9, Brain (Mouse)” value with brain (setting [13]) and in the test on brain (setting [6]) was 89.637 fold each time.
Take KNNLGSGSPHSKAQNQQT: the “Fold Enrichment relative to AAV9, Brain (NHP)” value in test [1] (setting [14]) was 50.670 fold. Besides, in test [1] (NHP DRG), the “Fold Enrichment relative to AAV9, DRG (NHP)” value stood at 0.000 fold. Moreover, the “Fold Enrichment relative to AAV9, Heart (NHP)” value in test [1] (NHP heart) was 0.019 fold. Further, in test [1] (NHP liver, DNA), the “Fold Enrichment relative to AAV9, Liver DNA (NHP)” value is 0.121 fold. Also, the “Fold Enrichment relative to AAV9, Liver RNA (NHP)” value in test [1] (NHP liver, RNA) was determined as 0.406 fold. In addition, the “Fold Enrichment relative to AAV9, Muscle (NHP)” value in test [1] (NHP muscle) was found to be 0.000 fold. For the same sequence, in the test on brain (mouse brain), the “Fold Enrichment relative to AAV9, Brain (Mouse)” value was found to be 102.408 fold.
Consider KTINGSGSPHSKAPSLQT, for which the “Fold Enrichment relative to AAV9, Brain (NHP)” value in test [1] (setting [14]) amounted to 52.137 fold. Also, the “Fold Enrichment relative to AAV9, DRG (NHP)” value in test [1] (NHP DRG) came out at 0.041 fold. Besides, the “Fold Enrichment relative to AAV9, Heart (NHP)” value in test [1] (NHP heart) was found to be 1.614 fold. In addition, the “Fold Enrichment relative to AAV9, Liver DNA (NHP)” value in test [1] (NHP liver, DNA) amounted to 0.222 fold. Further, in test [1] (NHP liver, RNA), the “Fold Enrichment relative to AAV9, Liver RNA (NHP)” value was 0.902 fold. Moreover, the “Fold Enrichment relative to AAV9, Muscle (NHP)” value in test [1] (NHP muscle) stood at 0.002 fold. Besides, the “Fold Enrichment relative to AAV9, Brain (Mouse)” value in the test on brain (mouse brain) stood at 70.363 fold.
KTENLSGSPHSKAQNQQT: the “Fold Enrichment relative to AAV9, DRG (NHP)” value in test [1] (setting [7]) is 0.070 fold. Moreover, the “Fold Enrichment relative to AAV9, Brain (NHP)” value in test [1] (setting [8]) stood at 70.303 fold. Besides, in test [1] (setting [9]), the “Fold Enrichment relative to AAV9, Heart (NHP)” value stood at 0.000 fold. Besides, the “Fold Enrichment relative to AAV9, Liver DNA (NHP)” value in test [1] (setting [10]) is recorded as 0.470 fold. Besides, the “Fold Enrichment relative to AAV9, Liver RNA (NHP)” value in test [1] (setting [11]) was 0.395 fold. The “Fold Enrichment relative to AAV9, Muscle (NHP)” value in test [1] (setting [12]) is 0.000 fold. Moreover, in the test with brain (setting [13]), the “Fold Enrichment relative to AAV9, Brain (Mouse)” value was 107.385 fold.

These data come from US20260250318A1, “COMPOSITIONS AND METHODS FOR CROSSING THE BLOOD BRAIN BARRIER” (VOYAGER THERAPEUTICS, INC., priority 2022, published 2026).
